{"source": "patent US12729377B2", "about": "“RNAi agents and compositions for inhibiting expression of angiopoietin-like 3 (ANGPTL3), and methods of use” (Arrowhead Pharmaceuticals, Inc., priority 2017, dated 2026)", "assay_type_in_all_cases": "in vivo, cynomolgus macaque (Macaca fascicularis)", "key": {"ANGPTL3 protein [1]": {"tested_on": "ANGPTL3 protein", "assay": "Example 9: serum ANGPTL3 protein by ELISA in cynomolgus monkeys", "details": "for Average ANGPTL3 Protein Normalized to Pre-Treatment: 2.0 mg/kg single SC injection day 1, cynos, n=3", "protocol": "(§1) Additional ANGPTL3 RNAi agents were evaluated in cynomolgus monkeys. On day 1, cynomolgus macaque (Macaca fascicularis) primates (also referred to herein as “cynos”) were administered a single subcutaneous injection of 0.3 mL/kg (approximately 2-3 mL volume, depending on animal mass) containing 2.0 mg/kg of an ANGPTL3 RNAi agent, which included either AD05488, AD05743, AD05775, or AD05841, each formulated in saline. […] ANGPTL3 RNAi agents AD05488, AD05743, and AD05775 included nucleotide sequences designed to target position 304 of the ANGPTL3 gene. ANGPTL3 RNAi agent AD05841 included nucleotide sequences designed to target position 1035 of the ANGPTL3 gene.\n(§2) Three (3) cynos in each group were tested (n=3). Blood samples were drawn and serum samples were analyzed on days −14 (predose), −7 (predose), 1 (pre-dose), 8, 15, 22, 29, and 35. Cynos were fasted overnight prior to each collection. ANGPTL3 protein levels in serum were measured by ELISA assay (R&D Systems), according to the manufacturer's recommendations. Triglycerides, total cholesterol, high-density lipoprotein (HDL), and low-density lipoprotein (LDL) in serum were measured on a Cobas® Integra 400 (Roche Diagnostics), according to the manufacturer's recommendations.\n(§3) The ANGPTL3 protein levels, triglyceride levels, total cholesterol levels, HDL levels, and LDL levels for each animal were normalized. For normalization, the level of ANGPTL3 protein, triglyceride, HDL, and total cholesterol, respectively, for each animal at a time point, was divided by the average pre-treatment level of expression in that animal (in this case at days −14, −7, and 1) to determine the ratio of expression “normalized to pre-treatment.”"}, "ANGPTL3 gene [2]": {"tested_on": "ANGPTL3 gene", "assay": "Example 9: serum triglycerides in cynomolgus monkeys", "details": "2.0 mg/kg single SC injection day 1, cynos, n=3", "protocol": "as §1, §2, §3"}, "ANGPTL3 gene [3]": {"tested_on": "ANGPTL3 gene", "assay": "Example 9: serum total cholesterol in cynomolgus monkeys", "details": "2.0 mg/kg single SC injection day 1, cynos, n=3", "protocol": "as §1, §2, §3"}, "ANGPTL3 gene [4]": {"tested_on": "ANGPTL3 gene", "assay": "Example 9: serum HDL in cynomolgus monkeys", "details": "2.0 mg/kg single SC injection day 1, cynos, n=3", "protocol": "as §1, §2, §3"}, "ANGPTL3 gene [5]": {"tested_on": "ANGPTL3 gene", "assay": "Example 9: serum LDL in cynomolgus monkeys", "details": "2.0 mg/kg single SC injection day 1, cynos, n=3", "protocol": "as §1, §2, §3"}, "ANGPTL3 protein [6]": {"tested_on": "ANGPTL3 protein", "assay": "Example 8: serum ANGPTL3 protein by ELISA in cynomolgus monkeys", "details": "for Avg ANGPTL3 protein normalized to pre-treatment: 3.0 mg/kg single SC injection day 1, cynos, n=2", "protocol": "(§4) Additional ANGPTL3 RNAi agents were evaluated in cynomolgus monkeys. On day 1, cynomolgus macaque (Macaca fascicularis) primates (also referred to herein as “cynos”) were administered a single subcutaneous injection of 0.3 mL/kg (approximately 1-2 mL volume, depending on animal mass) containing 3.0 mg/kg of one of ANGPTL3 RNAi agent AD05577, AD05307, AD05488, AD05654, or AD05659, each formulated in saline.\n(§5) Two (2) cynos in each group were tested (n=2). Blood samples were drawn and serum samples were analyzed on days −8 (pre-dose), 1 (pre-dose), 8, 15, 22, 29, and 36. Cynos were fasted overnight prior to each collection. ANGPTL3 protein levels in serum were measured by ELISA assay (R&D Systems), according to the manufacturer's recommendations. Triglycerides, total cholesterol, high-density lipoprotein (HDL), and low-density lipoprotein (LDL) in serum were measured on a Cobas® Integra 400 (Roche Diagnostics), according to the manufacturer's recommendations.\n(§6) The ANGPTL3 protein levels, triglyceride levels, total cholesterol levels, HDL levels, and LDL levels for each animal were normalized. For normalization, the level of ANGPTL3 protein, triglyceride, HDL, and total cholesterol, respectively, for each animal at a time point, was divided by the average pre-treatment level of expression in that animal (in this case at days −8, and 1 (pre-dose)) to determine the ratio of expression “normalized to pre-treatment.”"}, "ANGPTL3 gene [7]": {"tested_on": "ANGPTL3 gene", "assay": "Example 8: serum triglycerides in cynomolgus monkeys", "details": "3.0 mg/kg single SC injection day 1, cynos, n=2", "protocol": "as §4, §5, §6"}, "ANGPTL3 gene [8]": {"tested_on": "ANGPTL3 gene", "assay": "Example 8: serum total cholesterol in cynomolgus monkeys", "details": "3.0 mg/kg single SC injection day 1, cynos, n=2", "protocol": "as §4, §5, §6"}, "ANGPTL3 gene [9]": {"tested_on": "ANGPTL3 gene", "assay": "Example 8: serum HDL in cynomolgus monkeys", "details": "3.0 mg/kg single SC injection day 1, cynos, n=2", "protocol": "as §4, §5, §6"}, "ANGPTL3 gene [10]": {"tested_on": "ANGPTL3 gene", "assay": "Example 8: serum LDL in cynomolgus monkeys", "details": "3.0 mg/kg single SC injection day 1, cynos, n=2", "protocol": "as §4, §5, §6"}}, "note": "In the oligonucleotide strings, read from the 5' end, every base follows the letter of its sugar. An asterisk marks phosphorothioate; unmarked linkages are phosphodiester. Other units and linkages are bracketed, terminal groups are in braces. A string of capitals states the bases alone. {NAG37} = tridentate N-acetyl-galactosamine targeting ligand, structure (NAG37)s; [invAb] = inverted abasic unit; m = 2'-O-methyl; f = 2'-fluoro", "data": [{"substance": "AD05743: RNAi agent duplex: antisense AM07235-AS, sense AM07579-SS (antisense mU*fA*mC*fUmGfAmUfCmAfAmAfUmAfUmGfUmUfGmAfG*mC; sense {NAG37}*[invAb]*mGmCfUmCfAmAfCmAfUfAfUmUmUmGmAmUmCmAmGmUmA*[invAb])", "values": [{"measurement": "Average ANGPTL3 Protein Normalized to Pre-Treatment", "setting": "ANGPTL3 protein [1]; Day 8", "value": 0.349}, {"measurement": "Average ANGPTL3 Protein Normalized to Pre-Treatment", "setting": "ANGPTL3 protein [1]; Day 15", "value": 0.316}, {"measurement": "Average ANGPTL3 Protein Normalized to Pre-Treatment", "setting": "ANGPTL3 protein [1]; Day 22", "value": 0.322}, {"measurement": "Average ANGPTL3 Protein Normalized to Pre-Treatment", "setting": "ANGPTL3 protein [1]; Day 29", "value": 0.381}, {"measurement": "Average ANGPTL3 Protein Normalized to Pre-Treatment", "setting": "ANGPTL3 protein [1]; Day 35", "value": 0.346}, {"measurement": "reduction in ANGPTL3 protein compared to pre-treatment", "setting": "ANGPTL3 protein [1]; each of the measured time points, single 2.0 mg/kg subcutaneous, cynomolgus monkeys", "value": "reduction"}, {"measurement": "Average Triglycerides Normalized to Pre-Treatment", "setting": "ANGPTL3 gene [2]; Day 8", "value": 0.646}, {"measurement": "Average Triglycerides Normalized to Pre-Treatment", "setting": "ANGPTL3 gene [2]; Day 15", "value": 0.708}, {"measurement": "Average Triglycerides Normalized to Pre-Treatment", "setting": "ANGPTL3 gene [2]; Day 22", "value": 0.458}, {"measurement": "Average Triglycerides Normalized to Pre-Treatment", "setting": "ANGPTL3 gene [2]; Day 29", "value": 0.479}, {"measurement": "Average Triglycerides Normalized to Pre-Treatment", "setting": "ANGPTL3 gene [2]; Day 35", "value": 0.521}, {"measurement": "Average Total Cholesterol Normalized to Pre-Treatment", "setting": "ANGPTL3 gene [3]; Day 8", "value": 0.925}, {"measurement": "Average Total Cholesterol Normalized to Pre-Treatment", "setting": "ANGPTL3 gene [3]; Day 15", "value": 0.758}, {"measurement": "Average Total Cholesterol Normalized to Pre-Treatment", "setting": "ANGPTL3 gene [3]; Day 22", "value": 0.768}, {"measurement": "Average Total Cholesterol Normalized to Pre-Treatment", "setting": "ANGPTL3 gene [3]; Day 29", "value": 0.807}, {"measurement": "Average Total Cholesterol Normalized to Pre-Treatment", "setting": "ANGPTL3 gene [3]; Day 35", "value": 0.752}, {"measurement": "Average HDL Normalized to Pre-Treatment", "setting": "ANGPTL3 gene [4]; Day 8", "value": 0.849}, {"measurement": "Average HDL Normalized to Pre-Treatment", "setting": "ANGPTL3 gene [4]; Day 15", "value": 0.797}, {"measurement": "Average HDL Normalized to Pre-Treatment", "setting": "ANGPTL3 gene [4]; Day 22", "value": 0.666}, {"measurement": "Average HDL Normalized to Pre-Treatment", "setting": "ANGPTL3 gene [4]; Day 29", "value": 0.757}, {"measurement": "Average HDL Normalized to Pre-Treatment", "setting": "ANGPTL3 gene [4]; Day 35", "value": 0.677}, {"measurement": "Average LDL Normalized to Pre-Treatment", "setting": "ANGPTL3 gene [5]; Day 8", "value": 1.055}, {"measurement": "Average LDL Normalized to Pre-Treatment", "setting": "ANGPTL3 gene [5]; Day 15", "value": 0.825}, {"measurement": "Average LDL Normalized to Pre-Treatment", "setting": "ANGPTL3 gene [5]; Day 22", "value": 0.986}, {"measurement": "Average LDL Normalized to Pre-Treatment", "setting": "ANGPTL3 gene [5]; Day 29", "value": 0.941}, {"measurement": "Average LDL Normalized to Pre-Treatment", "setting": "ANGPTL3 gene [5]; Day 35", "value": 0.911}]}, {"substance": "AD05577: RNAi agent duplex: antisense AM07350-AS, sense AM07002-SS (antisense mU*fG*mU*mUmGmAmAmUmUmAmAfUmGfUmCfCmAfUmGfG*mA; sense {NAG37}*[invAb]*mUmCmCmAmUmGmGmAfCfAfUmUmAmAmUmUmCmAmAmCmA*[invAb])", "values": [{"measurement": "Avg ANGPTL3 protein normalized to pre-treatment", "setting": "ANGPTL3 protein [6]; Day 8", "value": 0.503}, {"measurement": "Avg ANGPTL3 protein normalized to pre-treatment", "setting": "ANGPTL3 protein [6]; Day 15", "value": 0.544}, {"measurement": "Avg ANGPTL3 protein normalized to pre-treatment", "setting": "ANGPTL3 protein [6]; Day 22", "value": 0.754}, {"measurement": "Avg ANGPTL3 protein normalized to pre-treatment", "setting": "ANGPTL3 protein [6]; Day 29", "value": 0.586}, {"measurement": "Avg ANGPTL3 protein normalized to pre-treatment", "setting": "ANGPTL3 protein [6]; Day 36", "value": 0.479}, {"measurement": "reduction in ANGPTL3 protein compared to pre-treatment", "setting": "ANGPTL3 protein [6]; all measured time points, single 3.0 mg/kg subcutaneous, cynomolgus monkeys", "value": "reduction"}, {"measurement": "Avg TG normalized to pre-treatment", "setting": "ANGPTL3 gene [7]; Day 8", "value": 1.159}, {"measurement": "Avg TG normalized to pre-treatment", "setting": "ANGPTL3 gene [7]; Day 15", "value": 0.977}, {"measurement": "Avg TG normalized to pre-treatment", "setting": "ANGPTL3 gene [7]; Day 22", "value": 0.855}, {"measurement": "Avg TG normalized to pre-treatment", "setting": "ANGPTL3 gene [7]; Day 29", "value": 0.886}, {"measurement": "Avg TG normalized to pre-treatment", "setting": "ANGPTL3 gene [7]; Day 36", "value": 0.748}, {"measurement": "Avg Total Chol normalized to pre-treatment", "setting": "ANGPTL3 gene [8]; Day 8", "value": 0.885}, {"measurement": "Avg Total Chol normalized to pre-treatment", "setting": "ANGPTL3 gene [8]; Day 15", "value": 0.931}, {"measurement": "Avg Total Chol normalized to pre-treatment", "setting": "ANGPTL3 gene [8]; Day 22", "value": 0.844}, {"measurement": "Avg Total Chol normalized to pre-treatment", "setting": "ANGPTL3 gene [8]; Day 29", "value": 0.839}, {"measurement": "Avg Total Chol normalized to pre-treatment", "setting": "ANGPTL3 gene [8]; Day 36", "value": 0.936}, {"measurement": "Average HDL Normalized to Pre-Treatment", "setting": "ANGPTL3 gene [9]; Day 8", "value": 0.855}, {"measurement": "Average HDL Normalized to Pre-Treatment", "setting": "ANGPTL3 gene [9]; Day 15", "value": 0.788}, {"measurement": "Average HDL Normalized to Pre-Treatment", "setting": "ANGPTL3 gene [9]; Day 22", "value": 0.818}, {"measurement": "Average HDL Normalized to Pre-Treatment", "setting": "ANGPTL3 gene [9]; Day 29", "value": 0.857}, {"measurement": "Average HDL Normalized to Pre-Treatment", "setting": "ANGPTL3 gene [9]; Day 36", "value": 0.852}, {"measurement": "Average LDL Normalized to Pre-Treatment", "setting": "ANGPTL3 gene [10]; Day 8", "value": 0.951}, {"measurement": "Average LDL Normalized to Pre-Treatment", "setting": "ANGPTL3 gene [10]; Day 15", "value": 1.091}, {"measurement": "Average LDL Normalized to Pre-Treatment", "setting": "ANGPTL3 gene [10]; Day 22", "value": 0.860}, {"measurement": "Average LDL Normalized to Pre-Treatment", "setting": "ANGPTL3 gene [10]; Day 29", "value": 0.991}, {"measurement": "Average LDL Normalized to Pre-Treatment", "setting": "ANGPTL3 gene [10]; Day 36", "value": 0.925}]}]}
